Measurements taken from ChEMBL document CHEMBL1145771 (Bioorg Med Chem Lett, 2003).

What was measured:
[1] = Selectivity ratio for inhibition of Protein phosphatase 1 and Protein phosphatase 2A
[2] = Inhibition of protein phosphatase 1 (PP1) was determined by standard phosphorylase a inhibition assay; design: species or system Oryctolagus cuniculus

**Q.** Which results are given for CO[C@@H]([C@H](O)CC(=O)[C@@H](C)[C@@H](O)CC[C@@H](C)[C@@H]1O[C@]2(CC[C@@H](C)[C@H](CC[C@H](C)C(C)=O)O2)CC[C@@H]1C)[C@H](OC(=O)CCCP(=O)(O)O)C(C)C?
**A.** Selectivity ratio [1]: 2; IC50 [2]: 150 µM

**Q.** For CO[C@H]([C@H](O)CC(=O)[C@@H](C)[C@@H](O)CC[C@@H](C)[C@@H]1O[C@]2(CC[C@@H](C)[C@H](CC[C@H](C)C(C)=O)O2)CC[C@@H]1C)[C@H](OC(=O)C[C@@H](O)C1=C(C)C(=O)OC1=O)C(C)C [TAUTOMYCIN], which IC50 [2] is on record?
**A.** The IC50 was 1.9 µM.

**Q.** Which Selectivity ratio [1] does the source give for CO[C@@H]([C@H](O)CC(=O)[C@@H](C)[C@@H](O)CC[C@@H](C)[C@@H]1O[C@]2(CC[C@@H](C)[C@H](CC[C@H](C)C(C)=O)O2)CC[C@@H]1C)[C@H](OC(=O)C[C@@H](O)/C=C(\C)C(=O)O)C(C)C here?
**A.** The Selectivity ratio was 1.9.

**Q.** What about the IC50 [2] of the same compound?
**A.** Its IC50 is 2.1 µM.

**Q.** Which IC50 [2] does the source give for CO[C@@H]([C@H](O)CC(=O)[C@@H](C)[C@@H](O)CC[C@@H](C)[C@@H]1O[C@]2(CC[C@@H](C)[C@H](CC[C@H](C)C(C)=O)O2)CC[C@@H]1C)[C@H](OC(=O)C[C@H](O)C1=C(C)C(=O)OC1=O)C(C)C here?
**A.** The IC50 was 0.13 µM.

**Q.** For CO[C@@H]([C@H](O)CC(=O)[C@@H](C)[C@@H](O)CC[C@@H](C)[C@@H]1O[C@]2(CC[C@@H](C)[C@H](CC[C@H](C)C(C)=O)O2)CC[C@@H]1C)[C@H](OC(=O)C[C@@](C)(O)C(=O)O)C(C)C, which Selectivity ratio [1] is on record?
**A.** Its Selectivity ratio is 1.3.

**Q.** And the IC50 [2]?
**A.** Its IC50 is 80 µM.

**Q.** With CO[C@@H]([C@H](O)CC(=O)[C@@H](C)[C@@H](O)CC[C@@H](C)[C@@H]1O[C@]2(CC[C@@H](C)[C@H](CC[C@H](C)C(C)=O)O2)CC[C@@H]1C)[C@H](OC(=O)C[C@](C)(O)C(=O)O)C(C)C as the compound, how does the Selectivity ratio [1] read?
**A.** Its Selectivity ratio is 1.5.

**Q.** And the IC50 [2]?
**A.** Its IC50 is 19 µM.
